Laboratory results as given in PMC6733504, “Effects of flavoring compounds used in electronic cigarette refill liquids on endothelial and vascular function” (PLoS ONE, 2019).

How the values were obtained:
endothelial cells [1] = assay: LDH release (membrane integrity); details: 1 mM, 60 minutes; maximum = 1% Triton
Method: To test for membrane integrity, endothelial cells were assayed for release of lactate dehydrogenase (LDH) into the culture medium. Subsequent to incubation with flavoring compounds (1 mM each) for 1 hour, 20-μl aliquots of the culture media were mixed with 200 μl of reagent buffer (1 mM pyruvate and 0.1 mM NAD^+ in PBS). The decrease in light absorbance at 340 nm was monitored using a diode array spectrophotometer (Hewlett Packard 8452A). Maximum LDH release was determined by treating the cells with 1% Triton X-100.

[2] = molecular target: T1, soluble guanylate cyclase (sGC) (Bos taurus, UniProt P16068+P19687); assay: Activity of purified sGC stimulated with DEA/NO; type: biochemical, bovine; details: for Emax of DEA/NO-stimulated sGC activity in presence of flavoring: flavoring 1 mM, DEA/NO 0.01–10 μM
T1 construct: The activity of sGC purified from bovine lung; from tissue; host or cells: bovine lung
T1 sequence (P19687 1-691): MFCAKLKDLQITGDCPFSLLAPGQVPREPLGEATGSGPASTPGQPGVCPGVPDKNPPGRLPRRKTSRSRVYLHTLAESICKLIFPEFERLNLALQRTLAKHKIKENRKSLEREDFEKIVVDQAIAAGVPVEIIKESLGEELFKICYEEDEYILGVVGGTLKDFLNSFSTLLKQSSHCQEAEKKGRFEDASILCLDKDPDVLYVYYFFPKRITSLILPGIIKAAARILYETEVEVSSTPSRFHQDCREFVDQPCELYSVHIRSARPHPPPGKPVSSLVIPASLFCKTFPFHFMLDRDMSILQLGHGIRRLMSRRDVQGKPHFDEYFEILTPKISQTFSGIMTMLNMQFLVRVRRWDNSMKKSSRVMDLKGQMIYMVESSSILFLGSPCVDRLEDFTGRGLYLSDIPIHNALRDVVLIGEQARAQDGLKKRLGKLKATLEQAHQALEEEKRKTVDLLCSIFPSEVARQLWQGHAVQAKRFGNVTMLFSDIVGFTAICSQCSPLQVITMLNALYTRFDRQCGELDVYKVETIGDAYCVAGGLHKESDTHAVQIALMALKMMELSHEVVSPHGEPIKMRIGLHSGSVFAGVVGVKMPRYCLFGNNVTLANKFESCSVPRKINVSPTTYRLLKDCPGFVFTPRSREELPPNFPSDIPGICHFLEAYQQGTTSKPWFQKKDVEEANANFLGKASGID
T1 sequence (P16068 1-619): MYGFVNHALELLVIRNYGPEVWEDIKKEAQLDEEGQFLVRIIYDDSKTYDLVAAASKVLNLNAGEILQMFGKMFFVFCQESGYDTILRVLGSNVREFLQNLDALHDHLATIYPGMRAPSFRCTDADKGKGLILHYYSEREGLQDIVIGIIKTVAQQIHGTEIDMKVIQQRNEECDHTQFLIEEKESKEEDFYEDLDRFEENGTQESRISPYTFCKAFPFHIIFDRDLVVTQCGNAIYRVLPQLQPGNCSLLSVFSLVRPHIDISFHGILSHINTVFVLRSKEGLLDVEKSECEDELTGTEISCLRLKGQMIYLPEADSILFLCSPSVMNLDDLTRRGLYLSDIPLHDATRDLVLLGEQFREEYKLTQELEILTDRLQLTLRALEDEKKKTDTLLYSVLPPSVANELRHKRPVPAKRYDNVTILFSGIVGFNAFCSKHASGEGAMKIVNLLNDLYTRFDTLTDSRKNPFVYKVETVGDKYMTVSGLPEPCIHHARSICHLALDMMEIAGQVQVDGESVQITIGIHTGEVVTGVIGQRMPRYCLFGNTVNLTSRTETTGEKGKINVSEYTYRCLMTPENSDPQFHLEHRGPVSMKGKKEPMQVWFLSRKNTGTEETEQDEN
Method: The activity of sGC purified from bovine lung was determined as formation of [^32P]cGMP from [α-^32P]GTP. The purified enzyme (50 ng) was incubated at 37°C for 10 min in a final volume of 0.1 ml in the absence or presence of flavorings with the NO donor DEA/NO at concentrations indicated in the figure legends, followed by isolation of [^32P]cGMP and quantification of radioactivity (Cerenkov radiation) in a β counter.
To test for reversibility of inhibition, sGC (50 ng) was preincubated in the absence or presence of the respective compounds for 5 minutes at 37°C, followed by 50-fold dilution in the assay mixtures and incubation with DEA/NO at 37°C for 10 minutes.

rat aortic rings [3] = assay: Effect of flavorings on vascular tone of U-46619 precontracted aortic rings; details: 95% CI; for EC50: Rattus norvegicus
Method: Unsexed Sprague-Dawley rats (obtained from Charles River, Sulzfeld, Germany) were housed at the local animal facility in approved cages. […] Animals were euthanized in a box that was gradually filled with CO2 until vital signs had ceased (cessation of respiration and circulation). Subsequently, the thorax of the animals was opened, the thoracic aorta was removed, cleaned from connective tissue and immediately used for assessment of vessel function.
After equilibration for 60 min at the optimal resting tension of 20 mN, maximal contractile activity was determined with a depolarizing solution containing 60 mM K^+. […] When contraction had reached a stable plateau (~after 20 min) cumulative concentration-response curves were established with flavorings. Where indicated, the effects of the flavorings on vascular tone were tested in the presence of the NOS inhibitor N^G-nitro-L-arginine methyl ester (L-NAME, 0.2 mM).
Concentration-response curves of different ring segments from a single animal were averaged and counted as an individual experiment.

endothelial cells [4] = assay: MTT to formazan conversion (viability); type: cell-based, porcine; details: 1 mM, 60 minutes
Method: The viability of endothelial cells was judged by incubation with 1 mM of the flavoring compounds, followed by determination of 3-(4,5-dimethyl-2-thiazolyl)-2,5-diphenyltetrazolium bromide (MTT) to formazan conversion using the Cayman MTT Cell Proliferation Assay Kit purchased through VWR International (Vienna, Austria).

[5] = Electrochemical determination of NO released from DEA/NO (NO scavenging); details: DEA/NO 1 μM
Method: Scavenging of NO by flavoring compounds was studied with a nitric oxide sensor (ISO-NOP, World Precision Instruments, Berlin, Germany), calibrated with acidified nitrite as described previously. Free NO radical was generated by incubation of DEA/NO (1 μM) in 1 ml of 100 mM phosphate buffer, pH 7.4, in the absence or presence of superoxide dismutase (2500 U/ml) at ambient temperature. At the peak concentration of NO, flavoring compounds (10 μl of DSMO stock solutions) were added, DMSO served as vehicle control.

[6] = tested on: endothelium-denuded rat aortic rings; assay: cAMP and cGMP levels in endothelium-denuded aortic rings; details: 10 µM
Excerpt: 1 S4 Table. […]
2 endothelium-denuded rat aortic rings.
Flavoring (fmol x mg-1) (fmol x mg-1)
4 En d o th e liu m-denuded rings, treated with test compounds as described in the
5 Materials and methods section of the main text, were freeze-clamped when maximal
6 relaxation had been reached. Rings were homogenized in 5% trichloroacetic acid
7 and analyzed for cAMP and cGMP by radioimmunoassay. Forskolin and DEA/NO
8 were used to induce maximal accumulation of cAMP and cGMP, respectively. Data
9 shown are mean values±SEM of 3 (forskolin and DEA/NO) or 6 (basal,
10 cinnamaldehyde and eugenol) rings; n.d., not determined, *p<0.05 vs. basal (ANOVA
11 and Dunnett's post hoc test).

[7] = tested on: Porcine aortic endothelial cells (endogenous NO/cGMP pathway); assay: A23187 (Ca2+ ionophore)-induced endothelial cGMP formation; type: cell-based; details: NNA 0.3 mM
Method: Porcine aortic endothelial cells were isolated as described and cultured at 37°C, 5% CO2 for up to 3 passages in Dulbecco´s modified Eagle´s medium, containing 10% heat-inactivated fetal calf serum (FCS), 100 U/ml penicillin, 0.1 mg/ml streptomycin, and 1.25 μg/ml amphotericin B. Prior to experiments, cells were subcultured into 24-well plates (determination of cGMP formation) or 6-well plates (determination of L-citrulline formation).
Accumulation of intracellular 3',5'-cyclic GMP (cGMP) was determined as previously described. Briefly, endothelial cells were washed and preincubated with the compounds to be tested for 15 minutes at 37°C in 50 mM Tris buffer, pH 7.4, containing 100 mM NaCl, 5 mM KCl, 1 mM MgCl2, 2.5 mM CaCl2, 1 mM 3-isobutyl-1-methylxanthine, and 1 μM indomethacin. Reactions were started by addition of the Ca^2+ ionophore A 23187 (final concentration 1 μM) or the NO donor DEA/NO (final concentration 1 μM) and terminated after 4 minutes by removal of the incubation medium and addition of 0.01 M HCl. Within 1 h, intracellular cGMP was completely released into the supernatant and measured by radioimmunoassay.

rat aortic rings [8] = assay: Relaxation of U-46619 precontracted aortic rings to acetylcholine; details: vehicle, no flavoring, 95% CI, read-out: EC50 of vascular relaxation to acetylcholine
Method: Animal experiments were performed in compliance with the Austrian law on experimentation with laboratory animals (last amendment 2013) based on the European Union guidelines for the Care and the Use of Laboratory Animals (European Union Directive 2010/63/EU). Unsexed Sprague-Dawley rats (obtained from Charles River, Sulzfeld, Germany) were housed at the local animal facility in approved cages. They were fed standard chow (Altromin 3023; obtained from Königshofer Futtermittel, Ebergassing, Austria) and received water ad libitum. Animals were euthanized in a box that was gradually filled with CO2 until vital signs had ceased (cessation of respiration and circulation). […]
For isometric tension measurements, vessel rings with intact endothelium were suspended in 5-ml organ baths containing oxygenated Krebs-Henseleit buffer (concentrations in mM: NaCl 118.4, NaHCO3 25, KCl 4.7, KH2PO4 1.2, CaCl2 2.5, MgCl2 1.2, D-Glucose 11; pH 7.4), as previously described in detail. After equilibration for 60 min at the optimal resting tension of 20 mN, maximal contractile activity was determined with a depolarizing solution containing 60 mM K^+. […]
Effects are expressed as percent of relaxation of U-46619-induced contraction. Concentration-response curves of different ring segments from a single animal were averaged and counted as an individual experiment.

[9] = rats, after intravenous cinnamaldehyde; cited from earlier work
[10] = absence of L-NAME, read-out: EC50 of relaxation of pre-contracted vessels (Control)
[11] = presence of L-NAME 0.2 mM, read-out: EC50 of relaxation of pre-contracted vessels (L-NAME)

| LDH release (% of maximum) (endothelial cells [1]) | Emax of DEA/NO-stimulated sGC activity in presence of flavoring [2] [µmol cGMP x min-1 x mg-1] | EC50 (rat aortic rings [3]; [10]) [µM] | EC50 (rat aortic rings [3]; [11]) [µM] | SMILES | Formazan formation (% of control) (endothelial cells [4]) | further results |
| --- | --- | --- | --- | --- | --- | --- |
| 0.7±0.12 % of maximum | 28±0.8 | 3700 | 5600 | CC(=O)c1ccccn1 [Acetylpyridine, 1-(Pyridin-2-yl)ethan-1-one] | 102±4.4 % of control | – |
| 0.6±0.03 % of maximum | – | – | – | CC(=O)C(C)=O [Diacetyl, Butane-2,3-dione] | 95±4.6 % of control | IC50 ([2]; DEA/NO 0.05 μM, 95% CI): 290 µM; EC50 of relaxation of pre-contracted vessels (Control) (rat aortic rings [3]; absence of L-NAME): no effects below 10 mM; Effect on recorded NO signal (NO scavenging) ([5]; 1 mM): only moderate effects; Effect on recorded NO signal (NO scavenging) ([5]; 10 mM): pronounced decrease |
| 0.9±0.12 % of maximum | 27±0.7 | 4200 | 5200 | Cc1cnc(C)cn1 [Dimethylpyrazine, 2,5-Dimethylpyrazine] | 103±3.7 % of control | – |
| 1.0±0.27 % of maximum | – | – | – | CC12CCC(CC1)C(C)(C)O2 [Eucalyptol, 1,3,3-Trimethyl-2-oxabicyclo[2.2.2]octane] | 99±2.0 % of control | EC50 of relaxation of pre-contracted vessels (Control) (rat aortic rings [3]; absence of L-NAME): no effects below 10 mM |
| – | – | – | – | C=C[C@@]1(C)CC(=O)[C@]2(O)[C@@]3(C)[C@@H](O)CCC(C)(C)[C@@H]3[C@H](O)[C@H](OC(C)=O)[C@@]2(C)O1 [Forskolin, reference compound] | – | cAMP [6]: 9309±488 fmol x mg-1 |
| 0.7±0.28 % of maximum | 28±0.7 | – | – | CC(=O)OCCC(C)C [Isoamylacetate, 3-Methylbutyl acetate] | 103±3.8 % of control | EC50 of relaxation of pre-contracted vessels (Control) (rat aortic rings [3]; absence of L-NAME): no effects below 10 mM |
| 0.8±0.03 % of maximum | 28±0.4 | 1600 | 1400 | CC1CCC(C(C)C)C(O)C1 (stereo not drawn) [Menthol, 5-Methyl-2-(propan-2-yl)cyclohexan-1-ol] | 100±2.9 % of control | – |
| – | – | – | – | N=C(NCCC[C@H](N)C(=O)O)N[N+](=O)[O-] [NNA, N^G-nitro-L-arginine, reference compound] | – | Effect on A23187-induced cGMP accumulation [7]: completely inhibited |
| 1.4±0.72 % of maximum | 25±0.6 | 1700 | 1800 | COc1cc(C=O)ccc1O [Vanillin, 4-Hydroxy-3-methoxybenzaldehyde] | 109±6.7 % of control | – |
| – | – | – | – | CC(=O)OCC[N+](C)(C)C [acetylcholine] | – | EC50 (rat aortic rings [8]): 0.055 µM |
| – | – | – | – | O=C(O)/C=C/c1ccccc1 [cinnamic acid] | – | Biological half-life [9]: about 7 minutes |

| SMILES | LDH release (% of maximum) (endothelial cells [1]) | Emax of DEA/NO-stimulated sGC activity in presence of flavoring [2] [µmol cGMP x min-1 x mg-1] | EC50 (rat aortic rings [3]; [10]) [µM] | EC50 (rat aortic rings [3]; [11]) [µM] | Formazan formation (% of control) (endothelial cells [4]) | further results |
| --- | --- | --- | --- | --- | --- | --- |
| O=Cc1ccccc1 [Benzaldehyde, benzaldehyde] | – | – | 2200 | 2500 | – | – |
